Data from patent US20090264306A1, “DNA METHYLATION BIOMARKERS IN LYMPHOID AND HEMATOPOIETIC MALIGNANCIES” (Curators of the University of Missouri, priority 2005, published 2009).

Test system: NHL lines RL, Daudi, DB, Raji, Granta 519 and Mec-1
Assay: Reactivation of methylated genes by DAC and TSA in NHL cell lines, real time RT-PCR
Assay type: cell-based, Human
From the text: Cell Lines and Drug Treatments. Human NHL lines RL, Daudi, DB, Raji, Granta 519 and Mec-1 were maintained in RPMI 1640 media. The germinal center related cell line RL is derived from a patient with FL and the t(14,18) gene rearrangement (12), and Daudi and Raji cells are of germinal center derivation. The postgerminal center cell line DB is a DLBCL cell line that has undergone isotype switching (12). […] Granta 519 is an MCL cell line over-expressing cyclin D1 (13) and Mec-1 is a transformed B-CLL/SLL cell line (14). For gene reactivation experiments, cells were cultured in the presence of vehicle (PBS) or DAC (1.0 μM; medium changed every 24 h). After 4 days, cells were either harvested or further treated with TSA (1.0 μM) for 12 h and then harvested. Some cells were also treated with TSA alone for 12 h before harvest. Genomic DNA or total RNA was isolated using Qiagen™ kits (Qiagen, Valencia Calif.) and used for methylation and gene expression analysis, respectively.
Real-time RT-PCR. Total RNA (2 μg) was pre-treated with DNase I to remove potential DNA contaminants and reverse-transcribed in the presence of SuperScript III™ reverse transcriptase (Invitrogen, Carlsbad, Calif.). The generated cDNA was used for PCR amplification with the system described above. The Taqman™ probe and primer sets for real time PCR were purchased from Applied Biosystems (Foster City, Calif.). Separate parallel reactions were run for GAPDH cDNA using a series of diluted cDNA samples as templates to generate standardization curves. The mRNA levels were derived from the standardization curves and expressed as relative changes after normalization to those of GAPDH.

[1] = NHL cell lines, DAC 1.0 μM 4 days, TSA 1.0 μM 12 h, normalized to GAPDH, combination effect in most of the cell lines

## Nc1ncn([C@H]2C[C@H](O)[C@@H](CO)O2)c(=O)n1 [DAC, 5-aza-2-deoxycytidine]
Granta 519 cell line, DAC alone
  CCND1 expression: down regulated
[1]
  CYP27B1 gene expression after treatment: weakly to moderately up-regulated
  RARβ2 gene expression after treatment: weakly to moderately up-regulated
